Measured values published in patent publication US12435046B2, “Alkynyl quinazoline compounds” (Black Diamond Therapeutics, Inc., priority 2019, dated 2025).

Tests used:
Type in all cases: cell-based
Conditions in all cases: Table A; BaF3 cells, 3 days
HER2 YVMA = molecular target: T1, HER2 YVMA (Homo sapiens, UniProt P04626, INS775YVMA); experiment: BaF3 cell proliferation assay (CellTiterGlo), HER2 YVMA
T1 construct: expressed in transfected cells; host or cells: BaF3 (murine pro-B) cells

EGFR wt = molecular target: T2, EGFR wt (Homo sapiens, UniProt P00533); experiment: BaF3 cell proliferation assay (CellTiterGlo), EGFR wt
T2 construct: expressed in transfected cells; host or cells: BaF3 (murine pro-B) cells, retroviral transduction with pMXs-IRES-Blasticidin
T2 sequence (P00533 25-1210): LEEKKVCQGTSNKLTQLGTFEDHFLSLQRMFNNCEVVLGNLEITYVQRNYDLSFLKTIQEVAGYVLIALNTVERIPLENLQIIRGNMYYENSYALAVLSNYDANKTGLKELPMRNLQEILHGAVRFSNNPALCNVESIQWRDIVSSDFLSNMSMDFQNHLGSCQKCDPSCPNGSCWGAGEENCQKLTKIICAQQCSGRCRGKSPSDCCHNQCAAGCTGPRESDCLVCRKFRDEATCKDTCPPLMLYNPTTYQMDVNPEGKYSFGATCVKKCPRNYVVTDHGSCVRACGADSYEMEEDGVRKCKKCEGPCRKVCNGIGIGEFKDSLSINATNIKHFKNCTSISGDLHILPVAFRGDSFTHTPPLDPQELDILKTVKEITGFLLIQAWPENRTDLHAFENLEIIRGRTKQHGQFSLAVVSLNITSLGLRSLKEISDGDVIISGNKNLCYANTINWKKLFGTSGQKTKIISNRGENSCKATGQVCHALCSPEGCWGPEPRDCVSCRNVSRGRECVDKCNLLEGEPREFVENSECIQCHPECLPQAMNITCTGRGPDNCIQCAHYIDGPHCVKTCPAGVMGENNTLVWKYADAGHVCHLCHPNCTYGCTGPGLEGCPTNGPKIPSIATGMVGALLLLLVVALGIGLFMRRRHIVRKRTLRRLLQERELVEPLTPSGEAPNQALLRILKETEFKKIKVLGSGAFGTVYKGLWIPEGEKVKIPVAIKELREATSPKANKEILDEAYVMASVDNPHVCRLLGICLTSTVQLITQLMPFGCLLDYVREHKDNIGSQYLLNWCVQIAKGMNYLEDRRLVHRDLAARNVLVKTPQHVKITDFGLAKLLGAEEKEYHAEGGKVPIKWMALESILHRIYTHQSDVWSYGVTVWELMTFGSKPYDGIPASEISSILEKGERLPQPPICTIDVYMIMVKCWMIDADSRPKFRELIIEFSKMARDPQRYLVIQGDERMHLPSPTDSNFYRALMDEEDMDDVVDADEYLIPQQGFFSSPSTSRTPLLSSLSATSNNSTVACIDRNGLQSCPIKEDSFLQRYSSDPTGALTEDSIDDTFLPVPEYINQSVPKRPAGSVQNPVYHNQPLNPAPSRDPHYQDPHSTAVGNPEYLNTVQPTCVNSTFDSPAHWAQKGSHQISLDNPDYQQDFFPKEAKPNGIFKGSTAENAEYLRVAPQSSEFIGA
Method: (§1) Retroviral Production: EGFR mutants were subcloned into pMXs-IRES-Blasticidin (RTV-016, Cell Biolabs, San Diego, CA). Retroviral expression vector retrovirus was produced by transient transfection of HEK 293T cells with the retroviral EGFR mutant expression vector pMXs-IRES-Blasticidin (RTV-016, Cell Biolabs), pCMV-Gag-Pol vector and pCMV-VSV-G-Envelope vector. Briefly, HEK 293T/17 cells were plated in 100 mm collagen coated plate (354450, Corning Life Sciences, Tewksbury, MA) (4×10^5 per plate) and incubated overnight. The next day, retroviral plasmids (3 ng of EGFR mutant, 1.0 ng of pCMV-Gag-Pol and 0.5 ng pCMV-VSV-G) were mixed in 500 n1 of Optimem (31985, Life Technologies). The mixture was incubated at room temperature for 5 min and then added to Optimem containing transfection reagent Lipofectamine (11668, Invitrogen) and incubated for 20 minutes. Mixture was then added dropwise to HEK 293T cells. The next day the medium was replaced with fresh culture medium and retrovirus was harvested @ 24 and 48 hrs.
(§2) Generation of EGFR mutant stable cell lines: BaF3 cells (1.5E5 cells) were infected with 1 ml of viral supernatant supplemented with 8 ng/ml polybrene by centrifuging for 30 min at 1000 rpm. Cells were placed in a 37° C. incubator overnight. Cells were then spun for 5 minutes to pellet the cells. Supernatant was removed and cells re-infected a fresh 1 ml of viral supernatant supplemented with 8 ng/ml polybrene by centrifuging for 30 min at 1000 rpm. Cells were placed in 37° C. incubator overnight. Cells were then maintained in RPMI containing 10% Heat Inactivated FBS, 2% L-glutamine containing 10 ng/ml IL-3. After 48 hours cells were selected for retroviral infection in 10 […] for one week. Blasticidin resistant populations were washed twice in phosphate buffered saline before plating in media lacking IL-3 to select for IL-3 independent growth.
(§3) Assay for cell proliferation: BaF3 cell lines were resuspended at 1.3E5 c/ml in RPMI containing 10% Heat Inactivated FBS, 2% L-glutamine and 1% Pen/Strep and dispensed in triplicate (17.5E4 c/well) into 96 well plates. To determine the effect of drug on cell proliferation, cells incubated for 3 days in the presence of vehicle control or test drug at varying concentrations. Inhibition of cell growth was determined by luminescent quantification of intracellular ATP content using CellTiterGlo (Promega), according to the protocol provided by the manufacturer. Comparison of cell number on day 0 versus 72 hours post drug treatment was used to plot dose-response curves. The number of viable cells was determined and normalized to vehicle-treated controls. Inhibition of proliferation, relative to vehicle-treated controls was expressed as a fraction of 1 and graphed using PRISM® software (Graphpad Software, San Diego, CA). EC50 values were determined with the same application.

HER2 S310F = molecular target: T3, HER2 S310F (Homo sapiens, UniProt P04626, S310F); experiment: BaF3 cell proliferation assay (CellTiterGlo), HER2 S310F
T3 construct: expressed in transfected cells; host or cells: BaF3 (murine pro-B) cells
T3 sequence (P04626 23-1255 S310F): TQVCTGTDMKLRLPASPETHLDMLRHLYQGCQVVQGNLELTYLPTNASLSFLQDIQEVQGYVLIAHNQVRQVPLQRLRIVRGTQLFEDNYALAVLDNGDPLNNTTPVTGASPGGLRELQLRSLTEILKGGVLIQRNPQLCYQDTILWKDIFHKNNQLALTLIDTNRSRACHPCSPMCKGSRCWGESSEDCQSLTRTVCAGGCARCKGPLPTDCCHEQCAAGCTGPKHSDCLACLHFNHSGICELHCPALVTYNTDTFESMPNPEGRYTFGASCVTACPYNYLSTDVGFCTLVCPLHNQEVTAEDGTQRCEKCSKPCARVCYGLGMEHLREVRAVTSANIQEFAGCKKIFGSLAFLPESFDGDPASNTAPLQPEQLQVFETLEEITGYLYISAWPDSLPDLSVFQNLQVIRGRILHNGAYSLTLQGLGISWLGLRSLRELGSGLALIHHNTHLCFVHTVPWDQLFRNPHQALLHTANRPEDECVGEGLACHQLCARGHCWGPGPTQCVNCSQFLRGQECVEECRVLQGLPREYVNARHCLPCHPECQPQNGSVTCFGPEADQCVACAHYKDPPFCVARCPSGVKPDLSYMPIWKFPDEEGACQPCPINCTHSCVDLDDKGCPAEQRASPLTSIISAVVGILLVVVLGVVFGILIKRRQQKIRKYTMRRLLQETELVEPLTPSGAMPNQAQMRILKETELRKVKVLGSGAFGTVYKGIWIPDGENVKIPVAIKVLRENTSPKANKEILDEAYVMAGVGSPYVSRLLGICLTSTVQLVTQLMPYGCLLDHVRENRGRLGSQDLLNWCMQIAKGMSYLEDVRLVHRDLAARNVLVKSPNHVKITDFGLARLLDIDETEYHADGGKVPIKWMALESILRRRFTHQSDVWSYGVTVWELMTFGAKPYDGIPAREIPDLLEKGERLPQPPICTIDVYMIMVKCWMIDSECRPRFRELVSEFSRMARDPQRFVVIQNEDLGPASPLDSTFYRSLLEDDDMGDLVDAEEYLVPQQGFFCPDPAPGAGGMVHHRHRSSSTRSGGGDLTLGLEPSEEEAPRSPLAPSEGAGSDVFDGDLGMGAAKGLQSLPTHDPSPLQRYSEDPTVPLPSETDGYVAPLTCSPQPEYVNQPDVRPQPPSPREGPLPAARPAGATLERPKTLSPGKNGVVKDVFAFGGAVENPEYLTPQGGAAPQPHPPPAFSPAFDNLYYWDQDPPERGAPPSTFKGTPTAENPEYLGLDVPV

EGFR V3 = molecular target: T4, EGFR V3 (Homo sapiens, UniProt P00533, DELINS30-297G); experiment: BaF3 cell proliferation assay (CellTiterGlo), EGFR V3
T4 construct: expressed in transfected cells; host or cells: BaF3 (murine pro-B) cells, retroviral transduction with pMXs-IRES-Blasticidin
T4 sequence (P00533 with tags, fused parts or gaps DELINS30-297G): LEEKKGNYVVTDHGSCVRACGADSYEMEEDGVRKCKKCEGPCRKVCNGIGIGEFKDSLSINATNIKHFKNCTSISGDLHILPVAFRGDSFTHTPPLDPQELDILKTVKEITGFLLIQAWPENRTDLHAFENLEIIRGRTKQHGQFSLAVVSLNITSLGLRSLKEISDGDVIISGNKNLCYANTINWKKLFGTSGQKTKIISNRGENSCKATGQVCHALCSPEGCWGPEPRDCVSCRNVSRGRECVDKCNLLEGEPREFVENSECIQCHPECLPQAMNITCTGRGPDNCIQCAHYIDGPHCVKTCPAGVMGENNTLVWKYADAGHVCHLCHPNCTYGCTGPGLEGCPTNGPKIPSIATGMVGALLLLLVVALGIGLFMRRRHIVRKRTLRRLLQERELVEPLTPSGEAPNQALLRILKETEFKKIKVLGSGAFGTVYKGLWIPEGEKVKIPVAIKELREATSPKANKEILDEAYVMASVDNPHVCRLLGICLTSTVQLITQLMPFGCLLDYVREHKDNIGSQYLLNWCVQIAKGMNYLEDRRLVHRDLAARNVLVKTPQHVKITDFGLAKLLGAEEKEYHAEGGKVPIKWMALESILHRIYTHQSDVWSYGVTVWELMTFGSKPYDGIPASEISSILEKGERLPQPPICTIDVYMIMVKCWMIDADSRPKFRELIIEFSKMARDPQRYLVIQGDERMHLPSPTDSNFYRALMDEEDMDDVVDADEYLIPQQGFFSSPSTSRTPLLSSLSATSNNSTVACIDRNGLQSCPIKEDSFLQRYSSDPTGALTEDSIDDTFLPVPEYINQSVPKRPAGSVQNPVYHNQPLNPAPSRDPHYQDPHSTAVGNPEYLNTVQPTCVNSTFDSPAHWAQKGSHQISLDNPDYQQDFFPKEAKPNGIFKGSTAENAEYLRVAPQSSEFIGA
Method: as §1, §2, §3

T1 sequence (P04626 with tags, fused parts or gaps INS775YVMA): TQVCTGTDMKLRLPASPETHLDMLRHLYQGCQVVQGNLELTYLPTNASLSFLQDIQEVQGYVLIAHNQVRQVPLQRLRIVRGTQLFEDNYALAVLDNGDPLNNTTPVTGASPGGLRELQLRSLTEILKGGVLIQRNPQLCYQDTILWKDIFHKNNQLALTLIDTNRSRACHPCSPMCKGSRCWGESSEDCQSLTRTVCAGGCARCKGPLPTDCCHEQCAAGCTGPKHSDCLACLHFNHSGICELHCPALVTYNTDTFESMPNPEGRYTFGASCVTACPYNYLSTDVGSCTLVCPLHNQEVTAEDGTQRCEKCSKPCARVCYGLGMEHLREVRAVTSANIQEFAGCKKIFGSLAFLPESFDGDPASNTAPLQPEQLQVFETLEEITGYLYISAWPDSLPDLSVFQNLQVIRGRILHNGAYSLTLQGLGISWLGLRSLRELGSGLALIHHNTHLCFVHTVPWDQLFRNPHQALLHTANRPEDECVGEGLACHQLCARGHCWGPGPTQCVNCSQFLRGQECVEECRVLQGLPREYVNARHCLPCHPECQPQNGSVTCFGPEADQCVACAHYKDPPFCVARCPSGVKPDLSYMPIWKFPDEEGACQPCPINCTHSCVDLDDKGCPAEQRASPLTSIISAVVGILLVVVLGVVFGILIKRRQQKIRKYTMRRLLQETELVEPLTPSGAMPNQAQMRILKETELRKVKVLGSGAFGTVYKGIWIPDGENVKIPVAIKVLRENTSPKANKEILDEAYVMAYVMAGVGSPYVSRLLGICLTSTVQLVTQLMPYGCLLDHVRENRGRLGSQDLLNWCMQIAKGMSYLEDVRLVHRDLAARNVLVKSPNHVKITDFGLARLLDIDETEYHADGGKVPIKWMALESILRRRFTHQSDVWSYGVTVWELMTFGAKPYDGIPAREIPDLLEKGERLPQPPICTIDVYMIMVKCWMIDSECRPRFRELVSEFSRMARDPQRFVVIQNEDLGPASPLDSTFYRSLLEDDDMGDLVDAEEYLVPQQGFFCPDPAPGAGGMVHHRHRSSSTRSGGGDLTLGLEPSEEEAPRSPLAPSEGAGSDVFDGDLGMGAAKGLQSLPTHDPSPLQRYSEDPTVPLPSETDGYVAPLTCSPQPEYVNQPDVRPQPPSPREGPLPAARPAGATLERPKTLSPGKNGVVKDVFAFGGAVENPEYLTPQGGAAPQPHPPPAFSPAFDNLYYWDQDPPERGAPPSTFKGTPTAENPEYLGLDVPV

IC50 (HER2 YVMA)	IC50 (EGFR wt)	IC50 (HER2 S310F)	IC50 (EGFR V3)	Structure (SMILES)
100 to 500 nM	> 500 nM	≤ 50 nM	≤ 50 nM	C=CC(=O)Nc1cc2c(Nc3ccc(OCc4ccccn4)c(Cl)c3)ncnc2cc1C#CC12CCC(CC1)N2C [Compound 71, N-(4-((3-chloro-4-(pyridin-2-ylmethoxy)phenyl)amino)-7-((7-methyl-7-azabicyclo[2.2.1]heptan-1-yl)ethynyl)quinazolin-6-yl)acrylamide]
100 to 500 nM	≤ 50 nM	≤ 50 nM	≤ 50 nM	C=CC(=O)Nc1cc2c(Nc3cccc(Cl)c3F)ncnc2cc1C#CC1CCN(C)C1 (centres unmarked) [Compound 77, N-(4-((3-chloro-2-fluorophenyl)amino)-7-((1-methylpyrrolidin-3-yl)ethynyl)quinazolin-6-yl)acrylamide]
100 to 500 nM	50 to 100 nM	50 to 100 nM	≤ 50 nM	C=CC(=O)Nc1cc2c(Nc3ccc(Cl)c(Cl)c3F)ncnc2cc1C#CC1C2COCC12 (centres unmarked) [Compound No. 80, N-(7-(3-oxabicyclo[3.1.0]hexan-6-ylethynyl)-4-((3,4-dichloro-2-fluorophenyl)amino)quinazolin-6-yl)acrylamide]
> 500 nM	100 to 500 nM	100 to 500 nM	≤ 50 nM	C=CC(=O)Nc1cc2c(Nc3cc(Cl)ccc3F)ncnc2cc1C#C[C@@H]1[C@H]2CN(C)C[C@@H]12 [Compound 75, N-(4-((5-chloro-2-fluorophenyl)amino)-7-(((1R,5S,6s)-3-methyl-3-azabicyclo[3.1.0]hexan-6-yl)ethynyl)quinazolin-6-yl)acrylamide]
> 500 nM	100 to 500 nM	100 to 500 nM	≤ 50 nM	C=CC(=O)Nc1cc2c(Nc3cccc(Cl)c3F)ncnc2cc1C#CC1(C)CCN(C2COC2)C1 (centres unmarked) [Compound 69, N-(4-((3-chloro-2-fluorophenyl)amino)-7-((3-methyl-1-(oxetan-3-yl)pyrrolidin-3-yl)ethynyl)quinazolin-6-yl)acrylamide]
100 to 500 nM	≤ 50 nM	≤ 50 nM	≤ 50 nM	C=CC(=O)Nc1cc2c(Nc3cccc(Cl)c3F)ncnc2cc1C#C[C@@H]1[C@H]2CN(C)C[C@@H]12 [Compound 78, N-(4-((3-chloro-2-fluorophenyl)amino)-7-(((1R,5S,6s)-3-methyl-3-azabicyclo[3.1.0]hexan-6-yl)ethynyl)quinazolin-6-yl)acrylamide]
100 to 500 nM	100 to 500 nM	100 to 500 nM	≤ 50 nM	C=CC(=O)Nc1cc2c(Nc3cccc(Cl)c3F)ncnc2cc1C#CC12CC1CN(C1COC1)C2 (centres unmarked) [Compound 64, N-(4-((3-chloro-2-fluorophenyl)amino)-7-((3-(oxetan-3-yl)-3-azabicyclo[3.1.0]hexan-1-yl)ethynyl)quinazolin-6-yl)acrylamide]

More lines, now with the values behind:

Structure (SMILES)	IC50 (HER2 YVMA)	IC50 (EGFR wt)	IC50 (HER2 S310F)	IC50 (EGFR V3)
C=C(CO)C(=O)Nc1cc2c(Nc3cccc(Cl)c3F)ncnc2cc1C#C[C@@]12C[C@@H]1CN(C)C2 [Compound 26, N-[4-(3-chloro-2-fluoro-anilino)-7-[2-[(1R,5S)-3-methyl-3-azabicyclo[3.1.0]hexan-1-yl]ethynyl]quinazolin-6-yl]-2-(hydroxymethyl)prop-2-enamide]	100 to 500 nM	50 to 100 nM	50 to 100 nM	≤ 50 nM
C=CC(=O)Nc1cc2c(Nc3cccc(Cl)c3F)ncnc2cc1C#CC1(C(F)(F)F)CCN(C)C1 (centres unmarked) [Compound 62, N-(4-((3-chloro-2-fluorophenyl)amino)-7-((1-methyl-3-(trifluoromethyl)pyrrolidin-3-yl)ethynyl)quinazolin-6-yl)acrylamide]	> 500 nM	> 500 nM	100 to 500 nM	100 to 500 nM
C=C(F)C(=O)Nc1cc2c(Nc3cccc(Cl)c3F)ncnc2cc1C#CC1(C)CCN(C)C1 (centres unmarked) [Compound 5, N-(4-((3-chloro-2-fluorophenyl)amino)-7-((1,3-dimethylpyrrolidin-3-yl)ethynyl)quinazolin-6-yl)-2-fluoroacrylamide]	100 to 500 nM	≤ 50 nM	100 to 500 nM	≤ 50 nM
C=CC(=O)Nc1cc2c(Nc3cccc(Cl)c3F)ncnc2cc1C#CC12CCN(CC1)CC2 [Compound 17, N-(4-((3-chloro-2-fluorophenyl)amino)-7-(quinuclidin-4-ylethynyl)-quinazolin-6-yl)acrylamide]	100 to 500 nM	≤ 50 nM	100 to 500 nM	≤ 50 nM
C=CC(=O)Nc1cc2c(Nc3cccc(Cl)c3F)ncnc2cc1C#CC1(F)CCN(C)C1 (centres unmarked) [Compound 60, N-(4-((3-chloro-2-fluorophenyl)amino)-7-((3-fluoro-1-methylpyrrolidin-3-yl)ethynyl)quinazolin-6-yl)acrylamide]	100 to 500 nM	100 to 500 nM	50 to 100 nM	≤ 50 nM
C=CC(=O)Nc1cc2c(Nc3cccc(Cl)c3F)ncnc2cc1C#C[C@]12C[C@H]1CN(C1COC1)C2 [Compound 48, N-(4-((3-chloro-2-fluorophenyl)amino)-7-(((1S,5R)-3-(oxetan-3-yl)-3-azabicyclo[3.1.0]hexan-1-yl)ethynyl)quinazolin-6-yl)acrylamide]	> 500 nM	100 to 500 nM	100 to 500 nM	100 to 500 nM
C=CC(=O)Nc1cc2c(Nc3cccc(Cl)c3F)ncnc2cc1C#C[C@@]1(F)CCN(C)C1 [Compound 45, N-{4-[(3-chloro-2-fluorophenyl)amino]-7-{2-[(3S)-3-fluoro-1-methylpyrrolidin-3-yl]ethynyl}quinazolin-6-yl}prop-2-enamide]	> 500 nM	100 to 500 nM	100 to 500 nM	≤ 50 nM
C=CC(=O)Nc1cc2c(Nc3cccc(Cl)c3F)ncnc2cc1C#CC1(C)CCN(CCF)C1 (centres unmarked) [Compound 56, N-(4-((3-chloro-2-fluorophenyl)amino)-7-((1-(2-fluoroethyl)-3-methylpyrrolidin-3-yl)ethynyl)quinazolin-6-yl)acrylamide]	> 500 nM	100 to 500 nM	100 to 500 nM	≤ 50 nM
C=CC(=O)Nc1cc2c(Nc3cccc(Cl)c3F)ncnc2cc1C#CC1(C)CN(C)CC1(F)F (centres unmarked) [Compound 55, N-(4-((3-chloro-2-fluorophenyl)amino)-7-((4,4-difluoro-1,3-dimethylpyrrolidin-3-yl)ethynyl)quinazolin-6-yl)acrylamide]	> 500 nM	> 500 nM	100 to 500 nM	100 to 500 nM
C=CC(=O)Nc1cc2c(Nc3cccc(Cl)c3F)ncnc2cc1C#CC12CCC(CC1)N2C [Compound 10, N-(4-((3-chloro-2-fluorophenyl)amino)-7-((7-methyl-7-azabicyclo[2.2.1]heptan-1-yl)ethynyl)quinazolin-6-yl)acrylamide]	> 500 nM	100 to 500 nM	100 to 500 nM	≤ 50 nM
C=CC(=O)Nc1cc2c(Nc3ccc(OCc4cccc(F)c4)c(Cl)c3)ncnc2cc1C#CC1(C)CCOC1 (centres unmarked) [Compound 61, N-(4-((3-chloro-4-((3-fluorobenzyl)oxy)-phenyl)amino)-7-((3-methyltetrahydrofuran-3-yl)ethynyl)quinazolin-6-yl)acrylamide]	100 to 500 nM	> 500 nM	50 to 100 nM	100 to 500 nM
C=CC(=O)Nc1cc2c(Nc3cccc(Cl)c3F)ncnc2cc1C#CC1(C)CN(C)C1 [Compound 11, N-(4-((3-chloro-2-fluorophenyl)amino)-7-((1,3-dimethylazetidin-3-yl)ethynyl)quinazolin-6-yl) acrylamide]	100 to 500 nM	100 to 500 nM	100 to 500 nM	≤ 50 nM
C=CC(=O)Nc1cc2c(Nc3cccc(Cl)c3F)ncnc2cc1C#C[C@]1(F)CCN(C)C1 [Compound 46, N-{4-[(3-chloro-2-fluorophenyl)amino]-7-{2-[(3R)-3-fluoro-1-methyl-pyrrolidin-3-yl]ethynyl}quinazolin-6-yl}prop-2-enamide]	> 500 nM	100 to 500 nM	100 to 500 nM	≤ 50 nM
